Values of other authors, collected in patent US20050163759A1, “Compositions and methods for ex vivo preservation of blood vessels for vascular grafts using inhibitors of type I and/or type II phosphodiesterases” (priority 2003, published 2005).

Test system: endothelial cells
Settings: stated as known; no experiment described

## CCCC(=O)Nc1ncnc2c1ncn2[C@@H]1O[C@@H]2COP(=O)(O)O[C@H]2[C@H]1OC(=O)CCC [db cAMP, dibutyryl adenosine 3′,5′-cyclic monophosphate]
  db cAMP concentrations that become toxic to endothelial cells: higher than 4 mM
